This note sets out measurements from ChEMBL document CHEMBL2346586, “N-substituted azaindoles as potent inhibitors of Cdc7 kinase” (Bioorg Med Chem Lett, 2013).

The target in series [1] is T1, Cell division cycle 7-related protein kinase (Homo sapiens, UniProt O00311). The series can be described thus: Inhibition of CDC7 (unknown origin).
The nature of series [2]: Intrinsic clearance in rat liver microsomes. The series is classed as ADME, Microsome. The note with it: read-out: CLH.
Series [3] in a line: Intrinsic clearance in human liver microsomes. The following applies: read-out: CLH. The series is classed as ADME, Microsome.
Series [4] has as its target Cyclin-dependent kinase 2 (Homo sapiens, UniProt P24941). As to the kind of experiment: Inhibition of CDK2 (unknown origin).
The species entered for the next series is Homo sapiens. The series can be described thus: Selectivity ratio of IC50 for CDK2 (unknown origin) to IC50 for CDC7 (unknown origin).
The target of series [5] is T1, Cell division cycle 7-related protein kinase. The series can be described thus: Inhibition of CDC7 in human HCT116 cells assessed as MCM2 phosphorylation. The format is cell-based, HCT-116.

T1 sequence (O00311 whole entry): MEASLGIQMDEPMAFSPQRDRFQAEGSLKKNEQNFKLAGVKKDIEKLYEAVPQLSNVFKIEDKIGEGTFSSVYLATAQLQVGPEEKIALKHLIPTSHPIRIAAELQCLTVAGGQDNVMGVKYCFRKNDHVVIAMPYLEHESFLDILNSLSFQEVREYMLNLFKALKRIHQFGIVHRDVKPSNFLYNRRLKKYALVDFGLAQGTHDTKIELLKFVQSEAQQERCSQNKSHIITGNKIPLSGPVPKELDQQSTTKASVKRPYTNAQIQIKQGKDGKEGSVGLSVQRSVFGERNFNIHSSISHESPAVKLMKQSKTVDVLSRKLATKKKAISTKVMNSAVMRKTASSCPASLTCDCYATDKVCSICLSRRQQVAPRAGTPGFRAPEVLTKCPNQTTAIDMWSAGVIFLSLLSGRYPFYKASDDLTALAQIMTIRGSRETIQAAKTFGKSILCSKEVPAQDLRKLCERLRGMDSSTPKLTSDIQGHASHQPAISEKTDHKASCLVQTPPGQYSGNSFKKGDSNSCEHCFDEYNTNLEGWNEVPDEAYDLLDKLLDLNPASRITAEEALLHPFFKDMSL

In the case of `Nc1nccc(-n2ccc3ncccc32)n1`, the IC50 in series [1] was 12600 nM; in series [4] it was 21000 nM. Further, the microsomal CLint in series [2] came to 50 µL/min/mg; in series [3], 60 µL/min/mg.
For `Nc1nccc(-n2cc(-c3ccccc3)c3cnccc32)n1`, the Ratio IC50 in the series listed under Homo sapiens was 3. Moreover, the IC50 in series [1] is 104 nM; in series [4] it was 310 nM.
In the same order, the values of `Nc1nccc(-n2cc(-c3cccnc3)c3cnccc32)n1` are 7, 160 nM and 1100 nM.
With `Nc1nccc(-n2ccc3ccc(O)cc32)n1`, the IC50 in series [1] came to 3300 nM; in series [4], 5000 nM.
In the same order, the values of `Nc1nccc(-n2cc(-c3cc[nH]n3)c3cnccc32)n1` are 580 nM and 550 nM.
As for `Nc1nccc(-n2ccc3cnc(Cl)cc32)n1`, the Ratio IC50 in the series filed under Homo sapiens was over 100. The IC50 was 360 nM in series [1], 38000 nM in series [4] and over 50000 nM in series [5]. Besides, the microsomal CLint was 134 µL/min/mg in series [2] and 104 µL/min/mg in series [3].
As to `Nc1nccc(-n2ccc3ccc(F)cc32)n1`, the figures for the IC50 in series [1] and in series [4] were 156 nM and 34000 nM, respectively.
`Nc1nccc(-n2ccc3ccc(Cl)cc32)n1`: the Ratio IC50 in the series filed under Homo sapiens was found to be 56. Besides, the figures for the IC50 in series [1] and in series [4] were 66 nM and 3700 nM, respectively.
With `N#Cc1ccc2ccn(-c3ccncn3)c2c1`, the values for the IC50 in series [1] and in series [4] were 1500 nM and over 83000 nM, respectively.
For `N#Cc1ccc2ccn(-c3ccnc(N)c3)c2c1`, the values for the IC50 in series [1], in series [4] and in series [5] were 9000 nM, 39000 nM and over 50000 nM, respectively. Also, the values for the microsomal CLint in series [2] and in series [3] were 122 µL/min/mg and 201 µL/min/mg, respectively.
Regarding `C#Cc1ccc2ccn(-c3ccnc(N)n3)c2c1`, the IC50 in series [1] turned out to be 760 nM; in series [4], 10000 nM.
For `Nc1nccc(-n2cc(-c3ccncc3)c3cnccc32)n1` the same measures were 250 nM and 160 nM.
On to `Nc1nccc(-n2cc(-c3cccc(Cl)c3)c3cnccc32)n1`, for which the Ratio IC50 in the series listed under Homo sapiens is over 500. In addition, the results for the IC50 in series [1] and in series [4] were 160 nM and over 83000 nM, respectively.
Regarding `N#Cc1ccc2ccn(-c3cccc(N)n3)c2c1`, the IC50 in series [1] turned out to be 10400 nM; in series [4] it was 45000 nM.
Turning to `N#Cc1ccc2c(ccn2-c2ccnc(N)n2)c1`, the IC50 in series [1] is 8500 nM; in series [4], over 29100 nM.
As to `Nc1nccc(-n2cc(-c3cccnc3Cl)c3cnc(Cl)cc32)n1`, the Ratio IC50 in the series filed under Homo sapiens is over 2700. Also, the values for the IC50 in series [1], in series [4] and in series [5] were 30 nM, over 83000 nM and 2300 nM, respectively. Besides, the microsomal CLint in series [2] stood at 102 µL/min/mg; in series [3], 30 µL/min/mg.
`N#Cc1ccc2ccn(-c3ccnc(N)n3)c2c1`: the Ratio IC50 in the series filed under Homo sapiens worked out at 220. The values for the IC50 in series [1], in series [4] and in series [5] were 75 nM, 16500 nM and 5000 nM, respectively. Besides, the microsomal CLint in series [2] stood at 124 µL/min/mg; in series [3], 430 µL/min/mg.
Take `Nc1nccc(-n2cc(-c3ccoc3)c3cnccc32)n1`: the concentration for half-maximal inhibition (IC50) was determined as 120 nM in series [1] and 100 nM in series [4].
Take `Nc1nccc(-n2ccc3ccc(C(F)(F)F)cc32)n1`: the figures for the half-inhibitory concentration (IC50) in series [1] and in series [4] were 1100 nM and 17000 nM, respectively.
Regarding `Nc1nccc(-n2cc(-c3ccc(Cl)cc3)c3cnccc32)n1`, the IC50 is 330 nM in series [1] and 60 nM in series [4].
`N#Cc1cnc2ccn(-c3ccnc(N)n3)c2c1`: the IC50 in series [1] was 5300 nM; in series [4] it was over 83000 nM. Moreover, the microsomal CLint in series [2] was 64 µL/min/mg; in series [3] it was 108 µL/min/mg.
For `N#Cc1cc2c(ccn2-c2ccnc(N)n2)cn1`, the concentration for half-maximal inhibition (IC50) in series [1] was 1240 nM; in series [4] it was over 44000 nM. The microsomal CLint in series [2] stood at 49 µL/min/mg; in series [3], 94 µL/min/mg.
Turning to `Nc1nccc(-n2cc(C3=CCOCC3)c3cnccc32)n1`, the IC50 in series [1] and in series [4] was 160 nM each time.
As for `N#Cc1ccc2ccn(-c3nccc(N)n3)c2c1`, the IC50 is 8800 nM in series [1] and over 29000 nM in series [4].
For `Nc1nccc(-n2ccc3cnccc32)n1`, the half-inhibitory concentration (IC50) in series [1] turned out to be 980 nM; in series [4], 3700 nM. Also, the microsomal CLint in series [2] was found to be 101 µL/min/mg; in series [3] it was 62 µL/min/mg.
As to `Nc1nccc(-n2ccc3cccnc32)n1`, the IC50 was 26700 nM in series [1], 42000 nM in series [4] and over 50000 nM in series [5]. Moreover, the microsomal CLint in series [2] amounted to 282 µL/min/mg; in series [3], 338 µL/min/mg.
As to `CNc1nccc(-n2ccc3ccc(C#N)cc32)n1`, the IC50 in series [1] was 25 nM; in series [4], 2700 nM.
For `Nc1nccc(-n2cc(-c3ccccc3Cl)c3cnccc32)n1`, the IC50 in series [1] amounted to 11 nM; in series [4], 110 nM.
Regarding `Nc1nccc(-n2cc(-c3cccnc3Cl)c3cnccc32)n1`, the Ratio IC50 in the series filed under Homo sapiens is 44. Moreover, the results for the IC50 in series [1], in series [4] and in series [5] were 7 nM, 310 nM and 850 nM, respectively. Moreover, the microsomal CLint was 72 µL/min/mg in series [2] and 21 µL/min/mg in series [3].
`Nc1nccc(-n2ccc3ccncc32)n1`: the figures for the IC50 in series [1] and in series [4] were 930 nM and 45100 nM, respectively. Moreover, the microsomal CLint in series [2] worked out at 64 µL/min/mg; in series [3], 134 µL/min/mg.
For `N#Cc1ccc2ccn(-c3cc(N)ncn3)c2n1`, the half-inhibitory concentration (IC50) was 9 nM in series [1], over 83000 nM in series [4] and 1370 nM in series [5]. The microsomal CLint was determined as 46 µL/min/mg in series [2] and 34 µL/min/mg in series [3].
For `Nc1nccc(-n2ccc3ccc([N+](=O)[O-])cc32)n1`, the IC50 in series [1] is 82 nM; in series [4], over 30600 nM.
With `Nc1nccc(-n2ccc3ccccc32)n1`, the IC50 is 4700 nM in series [1], 28500 nM in series [4] and over 50000 nM in series [5]. For the same compound, the microsomal CLint in series [2] came out at 375 µL/min/mg; in series [3], 387 µL/min/mg.
For `N#Cc1ccc2ccn(-c3cc(N)ncn3)c2c1`, the IC50 in series [1] is 2700 nM; in series [4], over 83000 nM.
In the same order, the values of `Nc1nccc(-n2ccc3ccc(Br)cc32)n1` are 350 nM and 8200 nM.
